# Laboratory results as given in ChEMBL document CHEMBL6083284, “Identification of TAK-756, A Potent TAK1 Inhibitor for the Treatment of Osteoarthritis through Intra-Articular Administration” (J Med Chem, 2024).
# Assays:
# [1] = Thermodynamic solubility in simulated synovial fluid containing PBS/BSA incubated for 20 hrs by HPLC-HRMS analysis; format: physicochemical; conditions: read-out: Therm_solubility
# [2] = Inhibition of MMP3 production in human C20/A4 cells by Nano-Glo HiBit assay; conditions: C20/A4, read-out: pEC50 (converted)
# [3] = Inhibition of IL-6 production in human SW982 cells by Nano-Glo HiBit assay; conditions: SW982, read-out: pEC50 (converted)
# [4] = Partition coefficient, logP of compound in octanol/water; format: physicochemical
# [5] = Free drug concentration in synovial fluid of Sprague-Dawley rat at 250 ug, IART measured for 168 hrs by LC-MS/MS analysis; format: ADME, tissue-based; conditions: in vivo, other, dose 250 µg
# [6] = Drug concentration in synovial fluid of Sprague-Dawley rat at 250 ug, IART measured for 168 hrs by LC-MS/MS analysis; format: ADME, tissue-based; conditions: for concentration at 168 h: Sprague-Dawley, synovial fluid, 250 ug, read-out: Ct
# [7] = Terminal half life in plasma of Sprague-Dawley rat at 250 ug, IART measured for 168 hrs by LC-MS/MS analysis; format: ADME, cell-free; conditions: dose 250 µg, read-out: beta t1/2 (converted)
# [8] = Protein binding in bovine synovial fluid assessed as unbound fraction at 5 uM incubated for 4 hrs by rapid equilibrium dialysis; format: ADME, tissue-based, Bos taurus; conditions: cattle
# [9] = Solubility in simulated synovial fluid; format: physicochemical
# [10] = Lipophilicity, logD of compound; format: physicochemical; conditions: octanol/water
# [11] = Drug uptake in synovial fluid of Sprague-Dawley rat at 50 ug, IART measured after 72 hrs by LC-MS/MS analysis; format: ADME, tissue-based; conditions: in vivo, other, dose 50 µg
# [12] = Drug concentration in plasma of Sprague-Dawley rat at 50 ug, IART measured after 24 hrs by LC-MS/MS analysis; format: ADME, cell-free; conditions: dose 50 µg
# [13] = Toxicity in Sprague-Dawley rat assessed as drug tolerance at 50 ug, IART measured for 168 hrs by LC-MS/MS analysis; conditions: in vivo, other, dose 50 µg
# [14] = Drug uptake in tibia of Sprague-Dawley rat assessed as accumulation at synovial membrane of tibial plateau at 50 ug, IART measured for 168 hrs by LC-MS/MS analysis; format: ADME, tissue-based; conditions: in vivo, other, dose 50 µg
# [15] = Drug uptake in tibia of Sprague-Dawley rat assessed as accumulation at cartilage tissue of tibial plateau at 50 ug, IART measured for 168 hrs by LC-MS/MS analysis; format: ADME, tissue-based; conditions: in vivo, other, dose 50 µg
# [16] = Drug concentration in plasma of Sprague-Dawley rat at 50 ug, IART measured for 168 hrs by LC-MS/MS analysis; format: ADME, cell-free; conditions: dose 50 µg
# [17] = Drug concentration in tibia of Sprague-Dawley rat assessed as accumulation in tibial plateau at 250 ug, IART measured for 168 hrs by LC-MS/MS analysis; format: ADME, tissue-based; conditions: dose 250 µg, read-out: Drug uptake
# [18] = Drug concentration in tibia of Sprague-Dawley rat assessed as accumulation in synovial membrane of tibial plateau at 250 ug, IART measured for 168 hrs by LC-MS/MS analysis; format: ADME; conditions: dose 250 µg, read-out: Ct
# [19] = target: T1, Interleukin-1 receptor-associated kinase 4 (Homo sapiens) (UniProt Q9NWZ3); test: Inhibition of IRAK4 (unknown origin) at 1 uM relative to control
# T1 sequence (whole entry): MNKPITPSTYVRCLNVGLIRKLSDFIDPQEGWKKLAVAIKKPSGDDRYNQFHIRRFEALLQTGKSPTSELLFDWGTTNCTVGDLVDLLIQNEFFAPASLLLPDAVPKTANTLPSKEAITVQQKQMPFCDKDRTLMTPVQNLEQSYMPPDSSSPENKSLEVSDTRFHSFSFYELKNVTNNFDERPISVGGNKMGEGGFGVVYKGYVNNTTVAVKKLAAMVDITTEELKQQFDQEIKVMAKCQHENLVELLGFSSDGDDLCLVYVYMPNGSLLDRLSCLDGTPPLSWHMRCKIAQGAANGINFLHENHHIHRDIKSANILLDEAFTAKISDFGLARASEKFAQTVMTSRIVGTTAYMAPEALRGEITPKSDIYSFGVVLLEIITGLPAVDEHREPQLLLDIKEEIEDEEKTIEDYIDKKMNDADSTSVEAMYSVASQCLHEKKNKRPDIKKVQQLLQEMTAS
# Rattus norvegicus [20] = test: Downregulation of Il6 mRNA level in meniscus of Lewis/Or1Rj naive rat model of joint inflammation administered intra-articularly pretreated with compound 72 hrs prior to LPS/MSU treatment measured after 4 hrs by qPCR analysis; format: functional, organism-based; conditions: dose <= 240.0 µg, route iart, time 76.0 hrs
# [21] = system: Mitogen-activated protein kinase kinase kinase 7 (TAK1, Rattus norvegicus); test: In vivo inhibition of TAK1 in Lewis/Or1Rj naive rat model of joint inflammation assessed as reduction in CXCL1 level at 15 ug, IART pretreated with compound 72 hrs prior to LPS/MSU treatment measured after 4 hrs relative to control; conditions: dose 15.0 µg, time 76.0 hrs
# [22] = target: Misshapen-like kinase 1 (Homo sapiens) (UniProt Q8N4C8); test: Inhibition of MINK1 (unknown origin) at 1 uM relative to control
# [23] = target: Dual specificity protein kinase CLK4 (Homo sapiens) (UniProt Q9HAZ1); test: Inhibition of CLK4 (unknown origin) at 1 uM relative to control
# [24] = target: Receptor-type tyrosine-protein kinase FLT3 (Homo sapiens) (UniProt P36888); test: Inhibition of FLT3 (unknown origin) at 1 uM relative to control
# Rattus norvegicus [25] = organism: Rattus norvegicus; test: Effect on Mmp3 mRNA level in meniscus of Lewis/Or1Rj naive rat model of joint inflammation >=30 ug, IART pretreated with compound 72 hrs prior to LPS/MSU treatment measured after 4 hrs by qPCR analysis; format: functional, organism-based; conditions: dose >= 30.0 µg, time 76.0 hrs
# [26] = Drug uptake in synovial fluid of Lewis/Or1Rj naive rat model of joint inflammation administered intra-articularly pretreated with compound 72 hrs prior to LPS/MSU treatment measured after 4 hrs; format: ADME; conditions: in vivo, other, 76 h, route iart, dose < 240 µg
# [27] = Unbound drug concentration in Lewis/Or1Rj naive rat model of joint inflammation at >60 ug, IART pretreated with compound 72 hrs prior to LPS/MSU treatment measured after 4 hrs; format: ADME; conditions: in vivo, other, 76 h, dose > 60 µg
# Rattus norvegicus [28] = test: Downregulation of Cxcl1 mRNA level in meniscus of Lewis/Or1Rj naive rat model of joint inflammation administered intra-articularly pretreated with compound 72 hrs prior to LPS/MSU treatment measured after 4 hrs by qPCR analysis; format: functional, organism-based; conditions: dose <= 240.0 µg, route iart, time 76.0 hrs
# [29] = target: TRAF2 and NCK-interacting protein kinase (Homo sapiens) (UniProt Q9UKE5); test: Inhibition of TNIK (unknown origin) at 1 uM relative to control
# [30] = Drug concentration in Lewis/Or1Rj naive rat model of joint inflammation at >60 ug, IART pretreated with compound 72 hrs prior to LPS/MSU treatment measured after 4 hrs; format: ADME; conditions: in vivo, dose > 60 µg, read-out: Ct
# [31] = system: Mitogen-activated protein kinase kinase kinase 7 (TAK1, Rattus norvegicus); test: In vivo inhibition of TAK1 in Lewis/Or1Rj naive rat model of joint inflammation assessed as reduction in CXCL1 level administered intra-articularly pretreated with compound 72 hrs prior to LPS/MSU treatment measured after 4 hrs; conditions: dose <= 240.0 µg, route iart, time 76.0 hrs
# [32] = target: Interleukin-1 receptor-associated kinase 1 (Homo sapiens) (UniProt P51617); test: Inhibition of IRAK1 (unknown origin) at 1 uM relative to control
# [33] = target: Mitogen-activated protein kinase kinase kinase kinase 4 (Homo sapiens) (UniProt O95819); test: Inhibition of MAP4K4 (unknown origin) at 1 uM relative to control
# Mitogen-activated protein kinase kinase kinase kinase 4 (Homo sapiens), sequence (O95819 2-1239 limits assumed): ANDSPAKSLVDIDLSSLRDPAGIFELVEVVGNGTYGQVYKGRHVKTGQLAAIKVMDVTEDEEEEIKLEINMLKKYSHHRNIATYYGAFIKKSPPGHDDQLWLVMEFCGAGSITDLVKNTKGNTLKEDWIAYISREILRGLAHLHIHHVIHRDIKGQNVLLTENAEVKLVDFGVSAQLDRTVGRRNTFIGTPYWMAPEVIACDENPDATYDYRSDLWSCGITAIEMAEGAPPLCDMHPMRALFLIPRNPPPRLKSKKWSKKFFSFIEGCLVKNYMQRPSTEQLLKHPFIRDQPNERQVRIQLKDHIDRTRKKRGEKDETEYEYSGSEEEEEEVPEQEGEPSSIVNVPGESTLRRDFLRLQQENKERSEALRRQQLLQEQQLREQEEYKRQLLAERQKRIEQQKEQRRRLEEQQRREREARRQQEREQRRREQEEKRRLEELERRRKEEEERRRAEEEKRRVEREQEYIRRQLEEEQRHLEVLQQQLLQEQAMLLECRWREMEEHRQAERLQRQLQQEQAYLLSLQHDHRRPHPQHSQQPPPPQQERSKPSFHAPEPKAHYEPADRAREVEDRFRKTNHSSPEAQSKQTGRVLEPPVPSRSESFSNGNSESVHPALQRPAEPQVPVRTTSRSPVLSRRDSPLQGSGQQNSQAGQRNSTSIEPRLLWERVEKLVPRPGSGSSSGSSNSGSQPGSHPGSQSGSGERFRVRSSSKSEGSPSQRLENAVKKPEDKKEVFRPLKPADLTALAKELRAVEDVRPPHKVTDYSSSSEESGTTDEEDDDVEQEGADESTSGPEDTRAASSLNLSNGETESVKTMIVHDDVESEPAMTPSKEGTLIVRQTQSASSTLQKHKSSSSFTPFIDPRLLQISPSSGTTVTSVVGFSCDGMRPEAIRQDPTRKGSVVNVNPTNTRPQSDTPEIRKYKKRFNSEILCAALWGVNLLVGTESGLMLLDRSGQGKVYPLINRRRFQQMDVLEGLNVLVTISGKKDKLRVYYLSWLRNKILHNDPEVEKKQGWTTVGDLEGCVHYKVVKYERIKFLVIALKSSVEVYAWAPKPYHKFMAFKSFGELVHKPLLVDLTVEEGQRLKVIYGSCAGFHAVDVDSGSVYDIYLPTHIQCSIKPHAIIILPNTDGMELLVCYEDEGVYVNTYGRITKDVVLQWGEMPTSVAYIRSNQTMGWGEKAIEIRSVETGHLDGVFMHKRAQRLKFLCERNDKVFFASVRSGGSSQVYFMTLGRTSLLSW
# Dual specificity protein kinase CLK4 (Homo sapiens), sequence (Q9HAZ1 whole entry, looked up): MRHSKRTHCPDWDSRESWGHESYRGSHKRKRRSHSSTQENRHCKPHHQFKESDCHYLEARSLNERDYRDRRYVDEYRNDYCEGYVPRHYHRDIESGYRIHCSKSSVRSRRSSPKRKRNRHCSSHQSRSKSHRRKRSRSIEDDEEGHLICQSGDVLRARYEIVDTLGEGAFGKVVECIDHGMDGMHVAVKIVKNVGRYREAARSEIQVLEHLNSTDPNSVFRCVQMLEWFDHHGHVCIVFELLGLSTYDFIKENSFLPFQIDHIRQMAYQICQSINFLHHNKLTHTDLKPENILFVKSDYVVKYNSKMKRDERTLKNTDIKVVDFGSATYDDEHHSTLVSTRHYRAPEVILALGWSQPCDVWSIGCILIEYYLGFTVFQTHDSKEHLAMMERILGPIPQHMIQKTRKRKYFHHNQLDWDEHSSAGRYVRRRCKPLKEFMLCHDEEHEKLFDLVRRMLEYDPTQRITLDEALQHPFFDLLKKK
# Receptor-type tyrosine-protein kinase FLT3 (Homo sapiens), sequence (P36888 whole entry): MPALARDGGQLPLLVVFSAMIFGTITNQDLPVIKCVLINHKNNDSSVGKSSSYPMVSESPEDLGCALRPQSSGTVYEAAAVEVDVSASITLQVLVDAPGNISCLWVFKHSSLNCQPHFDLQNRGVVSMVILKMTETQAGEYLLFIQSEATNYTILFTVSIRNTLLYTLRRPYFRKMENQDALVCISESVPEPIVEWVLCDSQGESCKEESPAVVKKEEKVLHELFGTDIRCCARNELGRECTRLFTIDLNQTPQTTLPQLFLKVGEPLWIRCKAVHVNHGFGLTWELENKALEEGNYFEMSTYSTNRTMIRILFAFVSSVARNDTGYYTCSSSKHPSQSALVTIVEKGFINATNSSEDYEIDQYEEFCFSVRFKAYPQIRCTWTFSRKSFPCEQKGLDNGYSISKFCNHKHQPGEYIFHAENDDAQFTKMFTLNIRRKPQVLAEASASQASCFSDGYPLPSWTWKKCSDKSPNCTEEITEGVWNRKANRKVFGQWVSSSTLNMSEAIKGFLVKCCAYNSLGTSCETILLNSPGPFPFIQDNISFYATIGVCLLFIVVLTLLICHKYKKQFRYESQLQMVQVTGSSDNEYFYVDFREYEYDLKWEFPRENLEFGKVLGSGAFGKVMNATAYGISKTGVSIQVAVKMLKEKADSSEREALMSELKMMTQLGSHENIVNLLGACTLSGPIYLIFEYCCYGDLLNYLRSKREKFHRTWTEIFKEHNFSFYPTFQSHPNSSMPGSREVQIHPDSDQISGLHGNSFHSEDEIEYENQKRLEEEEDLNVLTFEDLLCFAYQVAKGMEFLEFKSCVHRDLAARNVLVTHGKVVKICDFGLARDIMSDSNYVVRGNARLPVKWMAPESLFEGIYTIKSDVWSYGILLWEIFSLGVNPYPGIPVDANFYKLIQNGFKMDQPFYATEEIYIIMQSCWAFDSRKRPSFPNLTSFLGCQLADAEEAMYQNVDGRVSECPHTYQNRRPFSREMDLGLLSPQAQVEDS
# TRAF2 and NCK-interacting protein kinase (Homo sapiens), sequence (Q9UKE5 whole entry, looked up): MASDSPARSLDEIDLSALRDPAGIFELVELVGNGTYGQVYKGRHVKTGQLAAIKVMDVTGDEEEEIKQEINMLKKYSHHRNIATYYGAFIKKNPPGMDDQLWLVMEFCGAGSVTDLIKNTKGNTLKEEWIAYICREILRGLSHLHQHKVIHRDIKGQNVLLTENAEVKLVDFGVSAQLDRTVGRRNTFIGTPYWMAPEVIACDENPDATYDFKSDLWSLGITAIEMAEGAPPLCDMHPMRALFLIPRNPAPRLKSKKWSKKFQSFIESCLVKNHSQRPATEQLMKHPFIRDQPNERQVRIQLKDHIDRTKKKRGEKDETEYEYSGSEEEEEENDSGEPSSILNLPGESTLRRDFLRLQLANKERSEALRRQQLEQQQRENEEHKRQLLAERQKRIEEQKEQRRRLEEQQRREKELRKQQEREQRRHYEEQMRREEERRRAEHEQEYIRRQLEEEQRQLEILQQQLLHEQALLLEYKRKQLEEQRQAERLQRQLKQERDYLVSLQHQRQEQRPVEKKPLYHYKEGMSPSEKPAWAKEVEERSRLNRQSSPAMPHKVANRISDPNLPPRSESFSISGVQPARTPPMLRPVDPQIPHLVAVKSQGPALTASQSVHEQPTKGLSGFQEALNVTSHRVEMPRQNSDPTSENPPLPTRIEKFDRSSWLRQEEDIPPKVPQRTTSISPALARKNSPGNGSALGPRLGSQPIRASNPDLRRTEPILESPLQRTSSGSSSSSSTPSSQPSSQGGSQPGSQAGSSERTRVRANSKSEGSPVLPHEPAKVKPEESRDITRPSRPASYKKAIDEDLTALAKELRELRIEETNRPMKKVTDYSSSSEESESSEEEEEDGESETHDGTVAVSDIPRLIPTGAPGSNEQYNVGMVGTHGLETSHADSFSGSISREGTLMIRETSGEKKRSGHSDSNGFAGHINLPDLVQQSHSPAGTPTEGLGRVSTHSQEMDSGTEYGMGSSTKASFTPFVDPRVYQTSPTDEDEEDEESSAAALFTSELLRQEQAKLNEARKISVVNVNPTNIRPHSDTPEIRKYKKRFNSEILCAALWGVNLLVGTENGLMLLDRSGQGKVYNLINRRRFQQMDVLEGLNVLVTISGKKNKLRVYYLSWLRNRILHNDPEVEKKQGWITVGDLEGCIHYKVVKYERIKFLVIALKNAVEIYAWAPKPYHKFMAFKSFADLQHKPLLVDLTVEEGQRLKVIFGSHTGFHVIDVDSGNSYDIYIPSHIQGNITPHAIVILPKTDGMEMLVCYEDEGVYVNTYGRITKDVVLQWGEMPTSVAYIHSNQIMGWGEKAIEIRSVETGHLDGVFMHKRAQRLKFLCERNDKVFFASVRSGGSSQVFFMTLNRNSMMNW
# Interleukin-1 receptor-associated kinase 1 (Homo sapiens), sequence (P51617 whole entry, looked up): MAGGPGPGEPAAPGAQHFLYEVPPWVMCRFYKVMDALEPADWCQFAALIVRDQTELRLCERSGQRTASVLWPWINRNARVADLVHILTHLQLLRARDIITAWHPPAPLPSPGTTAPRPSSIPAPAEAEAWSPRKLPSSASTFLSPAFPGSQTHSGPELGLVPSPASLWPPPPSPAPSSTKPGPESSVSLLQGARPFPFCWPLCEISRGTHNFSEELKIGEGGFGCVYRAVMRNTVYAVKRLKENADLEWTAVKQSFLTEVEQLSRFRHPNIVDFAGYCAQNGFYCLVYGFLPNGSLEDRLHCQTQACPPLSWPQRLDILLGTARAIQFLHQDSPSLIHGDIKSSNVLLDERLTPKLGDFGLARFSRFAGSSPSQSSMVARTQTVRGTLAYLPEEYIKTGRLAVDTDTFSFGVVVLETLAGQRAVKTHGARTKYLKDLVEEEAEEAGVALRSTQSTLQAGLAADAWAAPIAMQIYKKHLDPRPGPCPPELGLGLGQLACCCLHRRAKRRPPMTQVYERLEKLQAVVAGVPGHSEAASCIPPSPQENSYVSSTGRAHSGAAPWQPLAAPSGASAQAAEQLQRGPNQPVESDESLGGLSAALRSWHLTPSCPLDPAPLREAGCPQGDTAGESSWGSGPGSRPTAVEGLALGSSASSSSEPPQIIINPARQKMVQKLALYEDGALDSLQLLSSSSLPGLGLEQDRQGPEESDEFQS
SMILES,solubility thermodynamic at 20 h [1] [µM],EC50 [2] [nM],EC50 [3] [nM],logP [4],Drug uptake(free) [5],half-life [7] [h],"fraction unbound at 4 h, 5 µM [8]",concentration at 168 h [6] [nM],further results
CN(C)C(=O)c1ccc(-c2cc(-c3cccc(C(N)=O)c3)no2)c(O[C@H]2CC[C@@H](O)CC2)n1,12,200,251,2.8,–,–,–,–,–
NC(=O)c1cccc(-c2cc(-c3ccc(NCC(=O)N4CCS(=O)(=O)CC4)nc3O[C@H]3CC[C@@H](O)CC3)on2)n1,0.13,251,631,2.4,221 nM,–,0.452,489,–
CC(C)CC(=O)Nc1cncc(-c2ccc3[nH]nc(-c4nc5c(-c6cccc(F)c6)cncc5[nH]4)c3c2)c1 [LORECIVIVINT],–,–,–,–,–,–,–,–,solubility [9]: 0.8 µM; logD [10]: > 4.7
CN(C)C(=O)c1ccc(-c2cc(-c3cccc(C(N)=O)c3)no2)c(O[C@H]2CC[C@@H](O)CC2)c1,10,158,126,2.8,–,–,–,–,–
NC(=O)c1cccc(-c2cc(-c3cccnc3O[C@H]3CC[C@@H](O)CC3)on2)n1,4.5,158,251,3.8,< 1 nM,7,0.056,14,Drug uptake [11]: Active; concentration at 24 h [12]: 1 nM; Activity [13]: Non-toxic; Drug uptake [14]: Active; Drug uptake [15]: Active; concentration at 168 h [16]: < 100 nM
CN1Cc2cc(-c3cc(-c4cccc(C(N)=O)c4)no3)c(O[C@H]3CC[C@@H](O)CC3)cc2C1=O,1.8,79.4,79.4,3.3,1550 nM,93,0.158,9810,concentration at 168 h [17]: 42000 nM; concentration at 168 h [18]: 631000 nM; inhibition [19]: 77%; Activity (Rattus norvegicus [20]): Dose-dependent-effect; inhibition [21]: > 90%; inhibition [22]: 88%; inhibition [23]: 88%; inhibition [24]: 97%; Activity (Rattus norvegicus [25]): Not active; Less Profound Effect Observed; Drug uptake [26]: Dose-dependent-effect; Drug uptake(free) [27]: 100 nM; Activity (Rattus norvegicus [28]): Dose-dependent-effect; inhibition [29]: 86%; concentration at 76 h [30]: ≥ 1000 nM; inhibition [31]: Dose-dependent-effect; inhibition [32]: 15%; inhibition [33]: 100%
COc1ccc(-c2cc(-c3cccc(C(N)=O)n3)no2)c(O[C@H]2CC[C@@H](O)CC2)n1,–,126,1000,4.5,–,–,–,–,–

# More lines, main results first:
solubility thermodynamic at 20 h [1] [µM],EC50 [2] [nM],EC50 [3] [nM],logP [4],Drug uptake(free) [5],half-life [7] [h],"fraction unbound at 4 h, 5 µM [8]",concentration at 168 h [6] [nM],SMILES,further results
2.9,126,79.4,3,–,–,–,–,CN(C)C(=O)c1ccc(-c2cc(-c3cccc(C(N)=O)n3)no2)c(O[C@H]2CC[C@@H](O)CC2)n1,–
0.2,501,1000,4,Below_limit_of_detection,11,–,–,CC(=O)Nc1ccc(-c2cc(-c3cccc(C(N)=O)n3)no2)c(O[C@H]2CC[C@@H](O)CC2)n1,"Ct ([6]; in vivo, other, 168 h, dose 250 µg): Below_limit_of_detection"
15,63.1,158,3.6,11 nM,21,0.088,120,NC(=O)c1cccc(-c2cc(-c3ccc(N)nc3O[C@H]3CC[C@@H](O)CC3)on2)n1,–
1,63.1,126,> 4.7,35 nM,168,0.019,1840,CNc1ccc(-c2cc(-c3cccc(C(N)=O)n3)no2)c(O[C@H]2CC[C@@H](O)CC2)n1,–
2,126,100,3,326 nM,80,0.27,1210,CN(C)C(=O)CNc1ccc(-c2cc(-c3cccc(C(N)=O)n3)no2)c(O[C@H]2CC[C@@H](O)CC2)n1,–
2.2,50.1,631,2.8,–,–,–,–,CNC(=O)CNc1ccc(-c2cc(-c3cccc(C(N)=O)n3)no2)c(O[C@H]2CC[C@@H](O)CC2)n1,–
